From US9283242B2, “Uses of dihydro bases” (priority 2013, dated 2016)

Legend:
[1] = Mutagenesis model: base-pairing preference of tautomers combined with NMR tautomeric distribution; conditions: assuming imine geometric isomers present in equal proportions
Protocol: One of the fundamental assumptions in developing a mutagenesis model is that each KP1212 tautomer has a distinct base-pairing preference. To establish these preferences, in a relatively simple modeling exercise each tautomer was analyzed for its most probable base-pairing partner on the basis of hydrogen bonding. The primary criterion for correct base-pairing was formation of the maximum number of Watson-Crick type hydrogen bonds between the bases. Each type of hydrogen bond was considered to confer an equal stabilization energy. Configurations in which multiple base pairs had equal hydrogen bond numbers were considered equally probable. Since KP1212 is a cytosine (pyrimidine) analog, and the primary mutagenic events are A to G or G to A, our modeling exercise explored only purine-pyrimidine putative base pairs. Several KP1212 tautomers featured a canonical Watson-Crick face. Thus, tautomers enol-amino (1), enol-imino (2Z) and keto-amino (4) were predicted to pair with guanine, while keto-imino (5E) was predicted to pair with adenine (FIG. 19). The remaining tautomers could not adopt a canonical Watson-Crick face and therefore were hypothesized to pair in other geometries (i.e., wobble pairings, or syn-conformer pairings). […]

PfuTurbo DNA polymerase = PfuTurbo DNA polymerase (Pyrococcus furiosus, UniProt P61875); test: In vitro polymerase extension assay on KP1212-containing M13 template; format: biochemical
PfuTurbo DNA polymerase, sequence (P61875 whole entry): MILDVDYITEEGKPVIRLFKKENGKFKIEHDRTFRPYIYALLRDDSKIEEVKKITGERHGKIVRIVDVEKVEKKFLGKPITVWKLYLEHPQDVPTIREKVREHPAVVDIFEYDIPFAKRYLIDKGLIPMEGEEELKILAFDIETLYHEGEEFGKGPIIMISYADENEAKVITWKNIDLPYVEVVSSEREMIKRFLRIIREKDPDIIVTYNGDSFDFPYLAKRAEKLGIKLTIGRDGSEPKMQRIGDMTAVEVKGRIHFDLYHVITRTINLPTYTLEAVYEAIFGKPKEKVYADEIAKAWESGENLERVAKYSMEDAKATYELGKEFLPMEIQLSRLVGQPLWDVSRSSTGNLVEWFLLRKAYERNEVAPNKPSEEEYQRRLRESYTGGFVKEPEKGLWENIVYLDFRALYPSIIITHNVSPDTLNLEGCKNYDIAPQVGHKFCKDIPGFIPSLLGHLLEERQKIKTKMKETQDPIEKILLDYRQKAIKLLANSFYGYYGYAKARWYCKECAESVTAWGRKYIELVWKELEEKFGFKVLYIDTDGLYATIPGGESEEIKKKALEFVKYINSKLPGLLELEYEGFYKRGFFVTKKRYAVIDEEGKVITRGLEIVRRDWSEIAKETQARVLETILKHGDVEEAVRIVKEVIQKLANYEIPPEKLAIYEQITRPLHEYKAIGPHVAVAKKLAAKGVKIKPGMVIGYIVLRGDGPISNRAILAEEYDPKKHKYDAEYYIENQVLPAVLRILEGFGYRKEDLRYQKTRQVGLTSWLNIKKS
Protocol: (A) A 16mer oligonucleotide containing KP1212 (SEQ ID NO: 1) (or controls) at a specific site was chemically synthesized and ligated into the genome of an M13 bacteriophage. (B) The KP1212-containing M13 genomes were replicated within E. coli cells. Progeny were analyzed to characterize the amount and the type of nucleic acid base placed opposite the lesion during replication. The relative reduction in lesion vs. non-lesion competitor progeny formation was used as an estimate of the extent to which KP1212 and m3C inhibited DNA replication. (C) The KP1212-containing M13 genomes were used as templates for in vitro polymerase extension assays, carried out at 72° C., using the high-fidelity DNA polymerase PfuTurbo. (D) Bypass efficiency (CRAB assay) of KP1212, m3C, C in HK81 (AlkB^+) and HK82 (AlkB^−) E. coli cells. m3C and undamaged C were used as controls. Genomes were made and normalized to one another before being combined with a competitor genome. Each mixture was transformed into the corresponding cell strain in triplicate, and bypass efficiency was calculated by using the undamaged C genome as 100% bypass, with error bars representing one standard deviation. (E) Mutagenesis (REAP assay) of KP1212, m3C, and C in HK82 (AlkB^−) E. coli cells. m3C, undamaged C, and an approximately equimolar mixture of genomes carrying unmodified G/A/T/C bases at the site of inquiry (denoted as GATC) were used as controls. Genomes containing the lesions of interest were transfected into E. coli in triplicate.
The single-stranded, lesion-containing genomes, constructed above were also used as templates for in vitro polymerase extension assays. Fifty fmol of each genome were mixed with 50 pmol of REAP forward and reverse primers, 1.25 U Pfu Turbo DNA polymerase and 5 nmol of each dNTP in 1×Pfu Turbo buffer. […] Subsequently, 29 PCR cycles amplified the newly formed strand and generated a product that was then analyzed using the exact downstream steps of the REAP assay described above. […]

[2] = in vitro, 72° C., PfuTurbo DNA polymerase (FIG. 18C)

NC1=NC(=O)N([C@H]2C[C@H](O)[C@@H](CO)O2)CN1 [KP1212, 5-aza-5,6-dihydro-2′-deoxycytidine]
model-predicted pairing with A [1]: ~20 % of the time
model-predicted pairing with G [1]: ~80 % of the time
pH dependence of mispairing frequency (PfuTurbo DNA polymerase; in vitro polymerase extension reaction, pH 7.0 and 7.8, preliminary studies): did not vary significantly
A placed opposite KP1212 (PfuTurbo DNA polymerase; [2]): 9.5 % of the time
G placed opposite KP1212 (PfuTurbo DNA polymerase; [2]): 90.5 % of the time
